Numbered stars: 1 amine (or outer) side, 2 acyl side, 3 side chain; on linkers, the order of the positions; unused ones are H or OH. Bridge positions count the residues as written; N and C are the ends. Peptide text beside a SMILES is read from it. I, II: the chains in the order shown. Rhodamine110 = O=C1OC2(c3ccc(N[*:1])cc3Oc3cc(N[*:2])ccc32)c2ccccc21
Experiments:
Type in all cases: cell-based, human
granulocytes [1] = assay: aberrant enzyme activities in febrile children, granulocytes (Table 7)
monocytes [2] = assay: enzyme activity with fluorogenic substrate, normal monocytes (Table 3A)
granulocytes [3] = assay: enzyme activity with fluorogenic substrate, normal granulocytes (Table 3A)
lymphocytes [4] = assay: aberrant enzyme activities in febrile children, lymphocytes (Table 7)
monocytes [5] = assay: aberrant enzyme activities in febrile children, monocytes (Table 7)
[6] = test system: metabolically active whole cell; assay: substrate panel in normals and HIV + patients, TB infection (Table 4); design: unit not given here
Procedure: A panel of assay compounds are assembled consisting of Ala-aminopeptidase and Lys-aminopeptidase, Dipeptidyl peptidase IV (Ala-Ala)2 rhodamine 110 and Cathepsin D to indicate possible TB infection in AIDS related cases.
A panel Of enzymatic substrates is performed consisting of Ala-aminopeptidase and Lys-aminopeptidase, Dipeptidyl peptidase IV (Ala-Ala)2 rhodamine 110 and Cathepsin D to indicate possible TB infection in AIDS related cases.

lymphocytes [7] = assay: enzyme activity with fluorogenic substrate, normal lymphocytes (Table 3A)

Row | SMILES | aberrant enzyme activity, GRANS (granulocytes [1]; P88 Enteritis) | aberrant enzyme activity, GRANS (granulocytes [1]; P89 Viral Stomatitis) | aberrant enzyme activity, GRANS (granulocytes [1]; P92 Adenitis) | aberrant enzyme activity, GRANS (granulocytes [1]; P95 Viral Syndrome) | aberrant enzyme activity, GRANS (granulocytes [1]; P96 Viral Syndrome) | aberrant enzyme activity, GRANS (granulocytes [1]; P97 Pyelonephritis) | aberrant enzyme activity, GRANS (granulocytes [1]; P99 Viral Syndrome) | aberrant enzyme activity, GRANS (granulocytes [1]; P101 Fever -- Unknown Origin) | aberrant enzyme activity, GRANS (granulocytes [1]; P102 UTI) | aberrant enzyme activity, GRANS (granulocytes [1]; P103 Viral Syndrome) | NORMAL LEUKOCYTE ENZYME ACTIVITY GRANS Mean (granulocytes [3]) | aberrant enzyme activity, LYMPHS (lymphocytes [4]; P88 Enteritis) | aberrant enzyme activity, LYMPHS (lymphocytes [4]; P89 Viral Stomatitis) | aberrant enzyme activity, LYMPHS (lymphocytes [4]; P92 Adenitis) | aberrant enzyme activity, LYMPHS (lymphocytes [4]; P95 Viral Syndrome) | aberrant enzyme activity, LYMPHS (lymphocytes [4]; P96 Viral Syndrome) | aberrant enzyme activity, LYMPHS (lymphocytes [4]; P97 Pyelonephritis) | aberrant enzyme activity, LYMPHS (lymphocytes [4]; P99 Viral Syndrome) | aberrant enzyme activity, LYMPHS (lymphocytes [4]; P101 Fever -- Unknown Origin) | aberrant enzyme activity, LYMPHS (lymphocytes [4]; P102 UTI) | further results
1 | N=C(N)NCCC[C@H](N)C(=O)NCC(=O)N[C@@H](CCC(=O)O)C(=O)N[C@@H](CO)C(=O)Nc1ccc2c(c1)Oc1cc(NC(=O)[C@H](CO)NC(=O)[C@H](CCC(=O)O)NC(=O)CNC(=O)[C@@H](N)CCCNC(=N)N)ccc1C21OC(=O)c2ccccc21 (stereo partly drawn) [RGES, (Arg-Gly-Glu-Ser)2 Rho 110] (I: H-RGES / II: H-RGES; linker I:C-II:C via Rhodamine110) | .smallcircle. | + (>0.25 Increase over normal range) | + (>0.25 Increase over normal range) | .smallcircle. | .smallcircle. | .smallcircle. | .smallcircle. | .smallcircle. | .smallcircle. | .smallcircle. | 3.96 | .smallcircle. | .smallcircle. | .smallcircle. | .smallcircle. | + (>0.25 Increase over normal range) | .smallcircle. | .smallcircle. | .smallcircle. | .smallcircle. | NORMAL LEUKOCYTE ENZYME ACTIVITY MONOS Mean (monocytes [2]): 8.37; aberrant enzyme activity, LYMPHS (lymphocytes [4]; P103 Viral Syndrome): .smallcircle.; aberrant enzyme activity, MONOS (monocytes [5]; P88 Enteritis): - (>0.25 Decrease over normal range); aberrant enzyme activity, MONOS (monocytes [5]; P89 Viral Stomatitis): .smallcircle.; aberrant enzyme activity, MONOS (monocytes [5]; P92 Adenitis): + (>0.25 Increase over normal range); aberrant enzyme activity, MONOS (monocytes [5]; P95 Viral Syndrome): .smallcircle.; aberrant enzyme activity, MONOS (monocytes [5]; P96 Viral Syndrome): .smallcircle.; aberrant enzyme activity, MONOS (monocytes [5]; P97 Pyelonephritis): .smallcircle.; aberrant enzyme activity, MONOS (monocytes [5]; P99 Viral Syndrome): .smallcircle.; aberrant enzyme activity, MONOS (monocytes [5]; P101 Fever -- Unknown Origin): - (>0.25 Decrease over normal range); aberrant enzyme activity, MONOS (monocytes [5]; P102 UTI): .smallcircle.; aberrant enzyme activity, MONOS (monocytes [5]; P103 Viral Syndrome): .smallcircle.
2 | CC(C)[C@H](N)C(=O)N[C@@H](CCCCN)C(=O)Nc1ccc2c(c1)Oc1cc(NC(=O)[C@H](CCCCN)NC(=O)[C@@H](N)C(C)C)ccc1C21OC(=O)c2ccccc21 [VK, (Val-Lys)2 Rho 110] | - (>0.25 Decrease over normal range) | - (>0.25 Decrease over normal range) | .smallcircle. | - (>0.25 Decrease over normal range) | .smallcircle. | + (>0.25 Increase over normal range) | + (>0.25 Increase over normal range) | .smallcircle. | .smallcircle. | .smallcircle. | 5.10 | .smallcircle. | .smallcircle. | .smallcircle. | - (>0.25 Decrease over normal range) | .smallcircle. | .smallcircle. | + (>0.25 Increase over normal range) | .smallcircle. | .smallcircle. | MEAN DELTA FL ([6]; HIV + PATIENTS): 17.7; MEAN DELTA FL ([6]; NORMALS): 22.7; aberrant enzyme activity, LYMPHS (lymphocytes [4]; P103 Viral Syndrome): .smallcircle.; NORMAL LEUKOCYTE ENZYME ACTIVITY LYMPHS Mean (lymphocytes [7]): 1.87; aberrant enzyme activity, MONOS (monocytes [5]; P88 Enteritis): - (>0.25 Decrease over normal range); aberrant enzyme activity, MONOS (monocytes [5]; P89 Viral Stomatitis): - (>0.25 Decrease over normal range); aberrant enzyme activity, MONOS (monocytes [5]; P92 Adenitis): .smallcircle.; aberrant enzyme activity, MONOS (monocytes [5]; P95 Viral Syndrome): .smallcircle.; aberrant enzyme activity, MONOS (monocytes [5]; P96 Viral Syndrome): .smallcircle.; aberrant enzyme activity, MONOS (monocytes [5]; P97 Pyelonephritis): .smallcircle.; aberrant enzyme activity, MONOS (monocytes [5]; P99 Viral Syndrome): + (>0.25 Increase over normal range); aberrant enzyme activity, MONOS (monocytes [5]; P101 Fever -- Unknown Origin): .smallcircle.; aberrant enzyme activity, MONOS (monocytes [5]; P102 UTI): - (>0.25 Decrease over normal range); aberrant enzyme activity, MONOS (monocytes [5]; P103 Viral Syndrome): + (>0.25 Increase over normal range)
